Experimental data taken from US6821761B2, “Sphingolipid ceramide N-deacylase, methods for producing sphingolipids and sphingolipid derivatives, and sphingolipid ceramide N-deacylase gene” (Takara Bio, Inc., priority 1994, dated 2004).

B1: SCDase (Pseudomonas sp. TK-4): sphingolipid ceramide N-deacylase produced by Pseudomonas sp. TK-4, SEQ ID NO:1 (protein)
chain: ELGDYGAWKTLLNLTSPPKADNPVRAEQRVGPYPMLANPAGFRSGFTPTAYFAWQTVQLAPETGAVCGDGSPYKFFVNRMPNTSNTLIYMEGGGACWDYASCSGQAGIRGARNPNGIPDDYMKLANPQASLVSPFVVRLHPYSRVKTQGWNIVYIPYCTGDLYAGDKVAVYDDPSGKKPPLVWHHNGLRNGRAVLGWLKDNLERPGQMLSTGCSAGGAGSLISHSVLRQDLAPDRGFLIDDSGPVFSAAVGGDSQTYPSLPLQNLIRSAWGLDQGPLQFLQSRLPGVSLSNLGSLYPALAANFPGDRLGHTHFWQDLNYSSYSYERFYPEIANAPDKATKEALIKAKWQVDTARLRDTLANLPNFGGYFPQYRALNESHCTTIVDFANGDIQEQGLELSHFIDNVLNGQGPVLDASELSDSADRAKPNNLIYDAINKLL
modifications: OTHER INFORMATION: Description of Unknown Or ganism: sphingolipid ceramide N-deacylase

Assays:
[1] = system: SCDase derived from the genus Pseudomonas; experiment: Reverse reaction on various acceptors by SCDase-1 ([1-14C] stearic acid); format: biochemical; conditions: 1 nmol [1-14C] stearic acid, 1 nmol lysosphingolipid, 30 μU SCDase, acetate buffer pH 6.0, 0.8% Triton X-100, overnight 37° C., galactosylsphingosine = 100
Experimental: A 10 μl portion of 50 mM acetate buffer (pH 6.0) containing 1 nmol [1-^14C] stearic acid, 1 nmol lysosphingolipid, 0.8% Triton X-100 and 30 μU SCDase derived from the genus Pseudomonas was subjected to overnight reaction at 37° C. The thus obtained reaction solution was developed on thin layer chromatography and exposed to an imaging plate to carry out for determining the reaction product by BAS 1000 Imaging Analyzer (manufactured by Fuji Photo Film).

[2] = system: SCDase derived from the genus Pseudomonas; experiment: Fatty acid exchange reaction on various acceptors by SCDase; format: biochemical; conditions: 1 nmol [1-14C] stearic acid, 1 nmol sphingolipid, 30 μU SCDase, acetate buffer pH 6.0, 0.8% Triton X-100, overnight 37° C., galactosyl ceramide = 100
Experimental: A 10 μl portion of 50 mM acetate buffer (pH 6.0) containing 1 nmol [1−^14C] stearic acid, 1 nmol sphingolipid, 0.8% Triton X-100 and 30 μU SCDase derived from the genus Pseudomonas was allowed to react overnight at 37° C.
The thus obtained reaction solution was developed on thin layer chromatography and exposed to an imaging plate to carry out determination of the reaction product by BAS 1000 Imaging Analyzer (manufactured by Fuji Photo Film).

[3] = system: SCDase; experiment: Substrate specificity (hydrolysis) of purified SCDase from Pseudomonas sp. TK-4; format: biochemical; conditions: 10 nmol sphingolipid, 2 milliunits enzyme, 37° C. 16 h, 20 mM sodium acetate buffer pH 5.0, 0.8% Triton X-100, TLC
Experimental: (§1) The enzyme activity of the SCDase is assayed in the following manner. To 10 μl of a substrate solution [50 mM acetate buffer solution (pH 6.0) containing 2 mM of asialo GM1 and 0.6% (w/v) of Triton X-100] is added 10 μl of an enzyme solution. After reacting at 37° C. for 30 minutes, the enzyme reaction is ceased by heating the mixture to 100° C. for 3 minutes. Then the reaction mixture is concentrated to dryness with a centrifugal concentrator. Then the obtained concentrate is dissolved in 10 μl of 50% methanol and placed on a TLC plate (silica gel 60; manufactured by Merck & Co., Inc.). After developing with chloroform/methanol/0.02% aqueous solution of CaCl2 (5/4/1 by volume), the sphingolipid is subjected to color development by the orcinol-sulfuric acid method. […] This spot is determined by using a TLC chromatoscanner (Shimadzu CS-9000, manufactured by Shimadzu Corporation) at a wavelength of 540 nm.
Sphingolipids (10 nmol each) were incubated at 37° C. for 16 h with 2 milliunits of the enzyme in 20 μl of 20 mM sodium acetate buffer, pH 5.0, containing 0.8% Triton X-100. The extent of hydrolysis was examined by TLC and calculated.

[4] = system: Pseudomonas sp. TK-4; experiment: Conversion of glycosphingolipids into lyso-forms by culture of Pseudomonas sp. TK-4; format: cell-based; conditions: PY medium with 0.1% 2,6-O-dimethyl-β-cyclodextrin, glycosphingolipid 0.5 mg/ml (Gb4 0.1 mg/ml), 25° C. shaking 3 days, TLC of supernatant
Experimental: A 60 ml portion of PY medium (polypeptone 0.5%, yeast extract 0.1%, sodium chloride 0.2%; pH 7.2) containing 30 mg of ganglioside GM1 (manufactured by Iatron) and 0.1% of 2,6-O-dimethyl-β-cyclodextrin was sterilized and inoculated with the strain which had been incubated overnight in a slant medium containing 0.1% of crude bovine brain ganglioside prepared in accordance with the method described in Methods in Enzymology, 14:660-664 (1969). Then, the strain was incubated therein under shaking at 25° C. for 3 days.
Then the cells were eliminated by centrifuging the culture medium and thus the culture supernatant was obtained.
PY medium (polypeptone 0.5%, yeast extract 0.1%, sodium chloride 0.2%; pH 7.2) containing 0.1% of 2,6-O-dimethyl-β-cyclodextrin was sterilized in an autoclave and filter-sterilized aqueous solutions of various glycosphingolipids [i.e., GM1, GM2 (manufactured by Matreya), GM3 (manufactured by Iatron), GD1a (manufactured by Iatron), GD1b (manufactured by Iatron), GD3 (manufactured by Iatron), GT1b (manufactured by Biocarb), sulfatide (manufactured by Matreya): each 0.5 mg/ml, Gb4 (manufactured by Iatron): 0.1 mg/ml] were added thereto. Then each medium was inoculated with Pseudomonas sp. TK-4, which had been incubated overnight in a slant medium containing 0.1% of crude bovine brain ganglioside, followed by incubation at 25° C. under shaking for 3 days.
Then the cells were eliminated by centrifuging the culture medium to obtain the culture supernatant which was then analyzed by thin layer chromatography.

[5] = system: crude SCDase; experiment: Substrate specificity of crude SCDase (culture supernatant) from Shewanella alga NS-589; format: biochemical; conditions: for Substrate specificity: acting on the substrate, forming the corresponding lysosphingolipid and fatty acid: SCDase produced by Shewanella alga NS-589; for Digestion ratio (%): crude SCDase supernatant, 1.2 mM sphingolipid, acetate buffer pH 6.0, Triton X-100, 37° C. 16 hours, TLC
Text: Acting on acidic glycolipids (GM1, GM2, GD1a, GD1b, sialosyl paragloboside, etc.), neutral glycolipids (lactosyl ceramide, Gb4, Gb5, etc.), sulfated glycolipids (sulfatide, etc.) and sphingomyelin which is a sphingophospholipid, thus forming the corresponding lysosphingolipid and fatty acid in each case.
The substrate specificity was examined as follows. Shewanella alga NS-589 was inoculated into a synthetic medium (dipotassium hydrogenphosphate 0.05%, ammonium chloride 0.05%, sphingomyelin 0.1%, sodium taurodeoxycholate 0.1%, sodium chloride 2%, 2,6-O-dimethyl-β-cyclodextrin 0.1%; pH 7.4). Two days after shaking cultivation at 30° C., the strain was removed to obtain a supernatant by centrifuge. A 50 mM acetate buffer ([…]; pH 6.0) containing 3 μl of the supernatant and 1.6% Triton X-100 was allowed to react with 5 μl of 1.2 mM of each of sphingolipids shown in Table 2 at 37° C. for 16 hours, and then the resulting mixture was analyzed with a thin layer chromatography.
The digestion ratios of various substrates by a crude SCDase obtained from Shewanella alga NS-589.

[6] = system: SCDase derived from the genus Pseudomonas; experiment: Reverse reaction on various acceptors by SCDase-2 (N-trifluoroacetylated aminododecanoic acid); format: biochemical; conditions: 66.6 nmol N-trifluoroacetylated aminododecanoic acid, 33.3 nmol lysosphingolipid, 148 μU SCDase, glycine-NaOH pH 11, 0.3% Triton X-100, 48 hours 37° C.
Experimental: A 41.6 μl portion of 25 mM glycine-sodium hydroxide buffer (pH 11) containing 66.6 nmol N-trifluoroacetylated aminododecanoic acid, 33.3 nmol lysosphingolipid, 0.3% Triton X-100 and 148 μU SCDase derived from the genus Pseudomonas was subjected to 48 hours of reaction at 37° C.
The thus obtained reaction solution was developed on thin layer chromatography, a glycosphingolipid was colored with orcinol-sulfuric acid, and other sphingolipids with Coomassie Brilliant Blue, and then determination of the reaction product was carried out by Imaging Densitometer (manufactured by Bio-Rad).

[7] = Enzymological properties of SCDase of Pseudomonas sp. TK-4 (optimum pH, temperature, stability); format: biochemical
Experimental: as §1
One unit (1 U) of activity is defined as the amount of the enzyme liberating 1 μmol of lysoasialo GM1 per minute from asialo GM1 at 37° C. […]
The enzyme of the present invention is maintained at each definite pH value at 5C for 16 hours. After returning the pH value to 6.0, the enzyme activity is measured to thereby examine the pH stability of the enzyme. […]

Molecule	Relative activity (%) [1] [%]	Relative activity (%) [2] [%]	Digestion ratio (%) [3] [%]	other results
CCCCCCCCCCCCC/C=C/[C@@H](O)[C@@H](N)COP(=O)([O-])OCC[N+](C)(C)C [Lysosphingomyelin, sphingosylphosphorylcholine]	5.7	–	–	–
Galactosyl ceramide [Gal-cer]	–	100.0	42	–
GD1a	–	6.2	49	Digestion ratio (%) [4]: 100%; Substrate specificity: acting on the substrate, forming the corresponding lysosphingolipid and fatty acid [5]: Acting on; Digestion ratio (%) [5]: 32.6%
CCCCCCCCCCCCC/C=C/[C@@H](O)[C@@H](N)CO[C@@H]1O[C@H](CO)[C@@H](O[C@@H]2O[C@H](CO)[C@H](O[C@@H]3O[C@H](CO)[C@H](O)[C@H](O[C@@H]4O[C@H](CO)[C@H](O)[C@H](O)[C@H]4O)[C@H]3NC(C)=O)[C@H](O[C@]3(C(=O)O)C[C@H](O)[C@@H](NC(C)=O)[C@H]([C@H](O)[C@H](O)CO)O3)[C@H]2O)[C@H](O)[C@H]1O [Lysoganglioside GM1a]	15.4	–	–	Reaction Efficiency (%) [6]: 29%
CCCCCCCCCCCCC/C=C/[C@@H](O)[C@@H](N)CO[C@@H]1O[C@H](CO)[C@H](O)[C@H](O)[C@H]1O [Galactosylsphingosine, galactosylsphingosine]	100.0	–	–	–
GD1b	–	1.2	–	Digestion ratio (%) [4]: 100%; Substrate specificity: acting on the substrate, forming the corresponding lysosphingolipid and fatty acid [5]: Acting on
Gal-GalNAc-Gal-Glc-Cer [Asialo GM1]	–	164.0	67	–
Glucosyl ceramide [Glc-cer]	–	129.0	48	–
lactosyl ceramide [Lac-cer]	–	112.0	64	Substrate specificity: acting on the substrate, forming the corresponding lysosphingolipid and fatty acid [5]: Acting on; Digestion ratio (%) [5]: 19.3%
CCCCCCCCCCCCCC=CC(O)C(N)COC1OC(CO)C(OC2OC(CO)C(O)C(OC3(C(=O)O)CC(O)C(NC(C)=O)C(C(O)C(O)CO)O3)C2O)C(O)C1O (stereo not drawn) [Lysoganglioside GM3]	–	–	–	Reaction Efficiency (%) [6]: 24%
Sulfatide	–	31.7	59	Digestion ratio (%) [4]: 100%; Substrate specificity: acting on the substrate, forming the corresponding lysosphingolipid and fatty acid [5]: Acting on
Ceramide	–	77.5	–	–
GT1b	–	–	–	Digestion ratio (%) [4]: 100%; Digestion ratio (%) [5]: 26.2%
CCCCCCCCCCCCC/C=C/[C@@H](O)[C@@H](N)CO [Sphingosine, sphingosine]	11.5	–	–	Reaction Efficiency (%) [6]: 69%
CCCCCCCCCCCCC/C=C/[C@@H](O)[C@@H](N)CO[C@@H]1O[C@H](CO)[C@@H](O[C@@H]2O[C@H](CO)[C@H](O)[C@H](O)[C@H]2O)[C@H](O)[C@H]1O [Lysolactosyl ceramide]	37.2	–	–	–
CCCCCCCCCCCCC/C=C/[C@@H](O)[C@@H](N)CO[C@@H]1O[C@H](CO)[C@H](O)[C@H](OS(=O)(=O)O)[C@H]1O [Lysosulfatide]	59.6	–	–	–
B1	–	–	–	Optimum temperature (maximum activity) ([7]; FIG. 2): about 40 °C; Heat stability: activity sustained ([7]; after treating at 60° C. for 30 minutes, FIG. 4): 90%
